Broadly, the inhibition is the change of the read-out against control, counted positive when it falls. A word on the IC50: it is the concentration needed to halve the response being measured.

Activity calls are given as the source filed them. No cut-off for these calls is given here.

This note sets out measurements from ChEMBL document CHEMBL2417422, “Modulation of human neutrophils' oxidative burst by flavonoids” (Eur J Med Chem, 2013).

Data set [1] has as its system Neutrophil. The data set is described as follows: Inhibition of oxidative burst in PMA-stimulated human neutrophils assessed as inhibition of H2O2-induced oxidation of amplex red at 40 uM incubated for 5 mins prior to PMA challenge by fluorescence assay. The data set is classed as functional.
In data set [2] the test system is Neutrophil. Nature of the data set: Inhibition of oxidative burst in PMA-stimulated human neutrophils assessed as inhibition of superoxide anion radical-induced lucigenin oxidation incubated for 5 mins prior to PMA challenge by chemiluminescence assay. It is filed as functional, cell-based.
The test system of data set [3] is Neutrophil. The data set is described as follows: Inhibition of oxidative burst in PMA-stimulated human neutrophils assessed as inhibition of H2O2-induced oxidation of amplex red up to 100 uM incubated for 5 mins prior to PMA challenge by fluorescence assay. The data set is classed as functional.
The subject of data set [4] is Neutrophil. Nature of the data set: Inhibition of oxidative burst in PMA-stimulated human neutrophils assessed as inhibition of ROS-induced luminol oxidation incubated for 5 mins prior to PMA challenge by chemiluminescence assay. It is filed as functional, cell-based.
A short description of data set [5]: Cytotoxicity against human neutrophils assessed as cell viability at 100 uM after 1 hr by trypan blue exclusion assay. It is filed as cell-based, Neutrophil. The settings on record: read-out: Activity.
Data set [6] deals with Neutrophil. The data set is described as follows: Inhibition of oxidative burst in PMA-stimulated human neutrophils assessed as inhibition of HOCl-induced oxidation of APF after 6 mins by fluorescence assay. The data set is classed as functional, cell-based. The settings on record: 0.1 h.
Data set [7] has as its system Neutrophil. Nature of the data set: Inhibition of oxidative burst in PMA-stimulated human neutrophils assessed as inhibition of H2O2-induced oxidation of amplex red incubated for 5 mins prior to PMA challenge by fluorescence assay. The data set is classed as functional, cell-based.
Data set [8] has as its system Neutrophil. Nature of the data set: Inhibition of oxidative burst in PMA-stimulated human neutrophils assessed as inhibition of ROS-induced luminol oxidation up to 100 uM incubated for 5 mins prior to PMA challenge by chemiluminescence assay. It is filed as functional.
Data set [9] deals with Neutrophil. The data set is described as follows: Inhibition of oxidative burst in PMA-stimulated human neutrophils assessed as inhibition of superoxide anion radical-induced lucigenin oxidation up to 100 uM incubated for 5 mins prior to PMA challenge by chemiluminescence assay. The data set is classed as functional.
The target of data set [10] is T1, Myeloperoxidase (Homo sapiens) (UniProt P05164).
T1 sequence (whole entry): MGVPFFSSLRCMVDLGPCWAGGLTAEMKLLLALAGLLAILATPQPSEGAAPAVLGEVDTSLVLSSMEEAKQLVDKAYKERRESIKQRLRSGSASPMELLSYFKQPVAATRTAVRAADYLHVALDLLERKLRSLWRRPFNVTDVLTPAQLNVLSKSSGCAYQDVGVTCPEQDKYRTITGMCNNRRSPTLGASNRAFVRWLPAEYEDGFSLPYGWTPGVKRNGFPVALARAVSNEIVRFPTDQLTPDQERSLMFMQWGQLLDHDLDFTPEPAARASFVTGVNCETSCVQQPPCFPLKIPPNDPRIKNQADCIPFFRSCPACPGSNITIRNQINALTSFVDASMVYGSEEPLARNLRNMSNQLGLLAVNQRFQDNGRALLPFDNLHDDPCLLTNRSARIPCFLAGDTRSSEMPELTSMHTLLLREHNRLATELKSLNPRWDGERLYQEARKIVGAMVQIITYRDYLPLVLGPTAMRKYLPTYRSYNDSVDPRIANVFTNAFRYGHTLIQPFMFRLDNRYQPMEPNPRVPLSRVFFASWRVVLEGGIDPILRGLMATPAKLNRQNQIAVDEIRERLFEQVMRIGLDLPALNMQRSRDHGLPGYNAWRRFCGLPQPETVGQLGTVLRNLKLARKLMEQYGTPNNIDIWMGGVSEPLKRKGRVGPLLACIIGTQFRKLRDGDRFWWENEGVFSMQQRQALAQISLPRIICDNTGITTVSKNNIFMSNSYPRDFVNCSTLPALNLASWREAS
Nature of the data set: Inhibition of MPO (unknown origin). The settings on record: concentration not given here.

In data set [11] the test system is Neutrophil. Nature of the data set: Inhibition of oxidative burst in PMA-stimulated human neutrophils assessed as inhibition of ROS-induced luminol oxidation at 25 uM incubated for 5 mins prior to PMA challenge by chemiluminescence assay. It is filed as functional.
For data set [12], the system named is Neutrophil. Nature of the data set: Inhibition of oxidative burst in PMA-stimulated human neutrophils assessed as inhibition of HOCl-induced oxidation of APF up to 100 uM after 6 mins by fluorescence assay. The data set is classed as functional, cell-based.

For `O=c1cc(-c2cccc(O)c2)oc2ccccc12`, the inhibition at 40 µM in data set [1] worked out at 17%. Moreover, the IC50 in [2] was found to be 47 µM; in data set [4], 24 µM. Also, the “inhibition (INH)” value in [3] is below 40%. Further, the viability at 1 h, 100 µM in [5] was above 98%.
With `NNC(=O)c1ccc(N)cc1`, the IC50 worked out at 43.6 µM in [4] and 30.6 µM in data set [6].
As for `O=c1cc(-c2ccc(O)c(O)c2)oc2ccccc12`, the IC50 was 3.2 µM in data set [7], 8.1 µM in [2], 3 µM in data set [4] and 0.9 µM in [6]. Further, the viability at 1 h, 100 µM in data set [5] was above 98%.
Taken in the same sequence, the figures for `O=c1cc(-c2ccc(O)c(O)c2)oc2cccc(O)c12` were 3.2 µM, 4.9 µM, 1.6 µM, 0.39 µM and above 98%.
With `O=c1cc(-c2cccc(O)c2)oc2cc(O)ccc12`, the IC50 in [7] turned out to be 79.6 µM; in data set [2], 34.8 µM; in data set [4] it was 37.4 µM. Also, the viability at 1 h, 100 µM in data set [5] is above 98%.
Regarding `O=c1cc(-c2ccc(O)cc2)oc2cc(O)ccc12`, the IC50 in data set [2] is 26.9 µM. Also, the “inhibition (INH)” value in data set [3] and in data set [8] was below 40% throughout. For the same compound, in [5], the viability at 1 h, 100 µM is above 98%.
On to `O=c1cc(-c2ccc(O)c(O)c2)oc2cc(O)ccc12`, for which the IC50 in [7] was determined as 3.7 µM; in data set [2], 14.7 µM; in data set [4], 13.5 µM; in data set [6], 5.2 µM. Also, the viability at 1 h, 100 µM in data set [5] was above 98%.
Take `O=c1cc(-c2ccc(O)cc2)oc2ccccc12`: in data set [7], the inhibition entry was “inactive”. Moreover, the “inhibition (INH)” value in data set [9] is on record as below 40%. In addition, the IC50 in data set [4] worked out at 40.3 µM. The viability at 1 h, 100 µM in [5] was above 98%.
Consider `O=c1cc(-c2cccc(O)c2)oc2cc(O)cc(O)c12`, for which the IC50 came out at 15.8 µM in data set [2], 10 µM in [4] and 65.4 µM in data set [6]. For the same compound, the “inhibition (INH)” value in [3] is reported as below 40%. Further, the viability at 1 h, 100 µM in data set [5] was above 98%.
Regarding `O=c1cc(-c2ccc(O)cc2)oc2cccc(O)c12`, in data set [1], the inhibition at 40 µM worked out at 20%. In addition, the figures for the IC50 in [2] and in data set [4] were 67.8 µM and 18 µM, respectively. Besides, the “inhibition (INH)” value in [3] is given as below 40%. Also, the viability at 1 h, 100 µM in data set [5] was above 98%.
In the same order, the values of `O=c1cc(-c2cccc(O)c2)oc2cccc(O)c12` are 20%, 32 µM, 14.5 µM, below 40% and above 98%.
For the compound `COc1ccc(-c2cc(=O)c3c(O)cc(O)cc3o2)cc1OC`, the IC50 in [2] was determined as 16 µM; in data set [4] it was 57.6 µM; in data set [6] it was 3.33 µM. The “inhibition (INH)” value in data set [3] was below 40%. In data set [5], the viability at 1 h, 100 µM was above 98%.
In [10], `O=C1CC(c2ccc(O)c(O)c2)Oc2cc(O)cc(O)c21` (racemic) showed an inhibition of 40%. Besides, the IC50 was found to be 4 µM in [7], 15.5 µM in data set [2], 18 µM in data set [4] and 1.4 µM in data set [6]. The viability at 1 h, 100 µM in data set [5] is above 98%.
Turning to `O=C1CC(c2ccc(O)cc2)Oc2cc(O)cc(O)c21` (racemic), the IC50 in [2] came to 31 µM; in data set [4] it was 51.4 µM. Besides, in data set [3], the “inhibition (INH)” value is reported as below 40%. Further, the viability at 1 h, 100 µM in data set [5] is above 98%.
In the case of `O=c1cc(-c2ccccc2)oc2cccc(O)c12` [5-HYDROXYFLAVONE], the inhibition entry in data set [7] was “inactive”. Further, the inhibition at 25 µM in data set [11] came to 30.1%. Further, the IC50 in [2] was found to be 96 µM. In addition, in data set [8], the “inhibition (INH)” value is listed as below 40%. Besides, in [5], the viability at 1 h, 100 µM is above 98%.
Consider `O=c1cc(-c2ccccc2)oc2cc(O)ccc12` [7-HYDROXYFLAVONE], for which the IC50 in data set [2] is 33 µM. The “inhibition (INH)” value in data set [3] and in data set [8] was below 40% throughout. The viability at 1 h, 100 µM in [5] is above 98%.
Consider `O=C1c2c(O)cc(O)cc2O[C@H](c2ccc(O)c(O)c2)[C@H]1O` [(+)-TAXIFOLIN], for which the inhibition in data set [10] amounted to 40%. Further, the IC50 in data set [7] is 41.3 µM; in data set [2], 15.5 µM; in data set [4], 53.5 µM; in [6], 15.3 µM. Further, the viability at 1 h, 100 µM in data set [5] was above 98%.
In the case of `COc1ccc(-c2cc(=O)c3c(O)cc(O)cc3o2)cc1` [ACACETIN], the inhibition entry in [12] and in data set [7] was “inactive” in each case. Also, in [11], the inhibition at 25 µM amounted to 26.7%. For the same compound, in [2], the IC50 came to 7 µM. The “inhibition (INH)” value in [8] is reported as below 40%. In addition, the viability at 1 h, 100 µM in [5] is above 98%.
As to `O=c1cc(-c2ccc(O)cc2)oc2cc(O)cc(O)c12` [APIGENIN], the IC50 in data set [7] was found to be 16.2 µM; in [2], 7.7 µM; in [4], 24 µM; in data set [6], 12.3 µM. For the same compound, the viability at 1 h, 100 µM in data set [5] was above 98%.
`O=c1cc(-c2ccccc2)oc2cc(O)cc(O)c12` [CHRYSIN]: the inhibition entry in data set [12] and in [7] was “inactive” each time. Moreover, the IC50 in [2] stood at 9.59 µM; in data set [4] it was 53 µM. Moreover, the viability at 1 h, 100 µM in data set [5] was above 98%.
Regarding `COc1cc(-c2cc(=O)c3c(O)cc(O)cc3o2)ccc1O` [CHRYSOERIOL], the IC50 in [7] was found to be 8.6 µM; in data set [2], 7.1 µM; in data set [4], 2.8 µM; in data set [6], 0.4 µM.
Take `COc1ccc(-c2cc(=O)c3c(O)cc(O)cc3o2)cc1O` [DIOSMETIN]: the IC50 in [7] stood at 10.3 µM; in [2], 15 µM; in [4], 3.6 µM; in data set [6] it was 0.7 µM.
`O=c1cc(-c2ccccc2)oc2ccccc12` [FLAVONE]: in data set [7], the inhibition result was “inactive”. Moreover, the IC50 amounted to 57 µM in data set [2] and 64.9 µM in data set [6]. The “inhibition (INH)” value in data set [8] is below 40%. Further, the viability at 1 h, 100 µM in data set [5] is above 98%.
`O=c1cc(-c2ccc(O)c(O)c2)oc2cc(O)cc(O)c12` [LUTEOLIN]: the IC50 in data set [7] is 4 µM; in data set [2], 9.5 µM; in data set [4] it was 9.3 µM; in data set [6], 0.9 µM. The viability at 1 h, 100 µM in data set [5] was above 98%.
In the same order, the values of `O=c1c(O)c(-c2ccc(O)c(O)c2)oc2cc(O)cc(O)c12` [QUERCETIN] are 8 µM, 11.3 µM, 26 µM, 0.7 µM and above 98%.
